Like-named read-outs stand apart in the source and are kept apart here.
Assay: PK of compound of Formula (Ia) after single subcutaneous dose of solution formulations in beagle dogs
Format: in vivo
Conditions: male, beagle, dog, plasma, sc, 12 mg/kg, mean ± SD
Protocol: Formulations containing the compound of Formula (Ia), or a pharmaceutically acceptable salt thereof, were prepared as solutions and optionally administered subcutaneously or intramuscularly to rats, rabbits, and/or dogs.
(§1) A solution of about 400 mg/mL of the compound of Formula (Ia) having 17.00 w/w % water, 36.40 w/w % PEG 300, 35.20 w/w % of a sodium salt of a compound of Formula (Ia), 5.00 w/w % ethanol, and 6.40 w/w % poloxamer 188 was prepared. The solution was administered subcutaneously to male beagle dogs at a dose level of about 12 mg/kg and male Wistar Han rats at a dose level of about 50 mg/kg. The pharmacokinetic profiles were determined, and the results for dogs are summarized in Table and Table, while the results for rats are summarized in Table and Table below.
as §1, with “500” for “400”, “14.06” for “17.00”, “30.12” for “36.40”
A solution of about 300 mg/mL of the compound of Formula (Ia) having 23.33 w/w % water, 48.99 w/w % PEG 300, 26.47 w/w % of a sodium salt of a compound of Formula (Ia), and 1.21 w/w % poloxamer 188 was prepared. The solution was administered subcutaneously to male beagle dogs at a dose level of about 6 mg/kg and male Wistar Han rats at a dose level of about 50 mg/kg. The pharmacokinetic profiles were determined, and the results for dogs are summarized in Table and Table, while the results for rats are summarized in Table and Table below.
as §1, with “18.80” for “17.00”, “40.25” for “36.40”, “34.38” for “35.20”, “1.57” for “6.40”
as §1, with “500” for “400”, “16.29” for “17.00”, “34.88” for “36.40”, “41.92” for “35.20”, “1.91” for “6.40”
as §1, with “20.90” for “17.00”, “44.72” for “36.40”, “and 34.38” for “35.20”, “(Ia)” for “(Ia), 5.00 w/w % ethanol, and 6.40 w/w % poloxamer 188”
A solution of about 400 mg/mL of the compound of Formula (Ia) having 19.90 w/w % water, 42.59 w/w % PEG 300, 34.38 w/w % of a sodium salt of a compound of Formula (Ia), and 3.13 w/w % poloxamer 188 was prepared. The solution was administered subcutaneously to male beagle dogs at a dose level of about 12 mg/kg and male Wistar Han rats at a dose level of about 50 mg/kg. […]

[1] = n = 3 dogs, SC 12 mg/kg, solution T, 400 mg/mL
[2] = n = 3 dogs, SC 12 mg/kg, solution U, 500 mg/mL

For `CC(C)(C#Cc1ccc(-c2ccc(Cl)c3c(NS(C)(=O)=O)nn(CC(F)(F)F)c23)c([C@H](Cc2cc(F)cc(F)c2)NC(=O)Cn2nc(C(F)(F)F)c3c2C(F)(F)[C@@H]2C[C@H]32)n1)S(C)(=O)=O` [compound of Formula (Ia)], which AUC(0-t) (male beagle dogs, single SC 12 mg/kg, 400 mg/mL solution Z (3.13% poloxamer 188), n = 3, read-out: AUC0-3024 h) is on record?
The AUC(0-t) was 175 ± 32 µM·h.

And the AUC(0-t) (male beagle dogs, single SC 12 mg/kg, 400 mg/mL solution Z (3.13% poloxamer 188), n = 3, read-out: AUC0-3696 h)?
The AUC(0-t) was 177 ± 31 µM·h.

And the Cmax (male beagle dogs, single SC 12 mg/kg, 500 mg/mL solution X (5.00% ethanol, 1.91% poloxamer 188), n = 3)?
The Cmax was 125 ± 95 nM.

And the AUC(0-t) (male beagle dogs, single SC 12 mg/kg, 500 mg/mL solution X (5.00% ethanol, 1.91% poloxamer 188), n = 3, read-out: AUC0-24 h)?
Its AUC(0-t) is 0.663 ± 0.157 µM·h.

What about the AUC(0-t) (male beagle dogs, single SC 12 mg/kg, 500 mg/mL solution X (5.00% ethanol, 1.91% poloxamer 188), n = 3, read-out: AUC0-168 h) of the same molecule?
Its AUC(0-t) is 6.01 ± 1.87 µM·h.

And the AUC(0-t) (male beagle dogs, single SC 12 mg/kg, 500 mg/mL solution X (5.00% ethanol, 1.91% poloxamer 188), n = 3, read-out: AUC0-672 h)?
The AUC(0-t) was 46.1 ± 32.5 µM·h.

What about the AUC(0-t) (male beagle dogs, single SC 12 mg/kg, 500 mg/mL solution X (5.00% ethanol, 1.91% poloxamer 188), n = 3, read-out: AUC0-1344 h) of the same molecule?
The AUC(0-t) was 90.8 ± 60 µM·h.

What about the AUC(0-t) (male beagle dogs, single SC 12 mg/kg, 500 mg/mL solution X (5.00% ethanol, 1.91% poloxamer 188), n = 3, read-out: AUC0-1680 h) of the same molecule?
The AUC(0-t) was 106 ± 68 µM·h.

And the AUC(0-t) (male beagle dogs, single SC 12 mg/kg, 500 mg/mL solution X (5.00% ethanol, 1.91% poloxamer 188), n = 3, read-out: AUC0-2016 h)?
Its AUC(0-t) is 116 ± 75 µM·h.

And the AUC(0-t) (male beagle dogs, single SC 12 mg/kg, 500 mg/mL solution X (5.00% ethanol, 1.91% poloxamer 188), n = 3, read-out: AUC0-2253 h)?
The AUC(0-t) was 124 ± 44 µM·h.

And the AUC(0-t) (male beagle dogs, single SC 12 mg/kg, 500 mg/mL solution X (5.00% ethanol, 1.91% poloxamer 188), n = 3, read-out: AUC0-2688 h)?
The AUC(0-t) was 130 ± 83 µM·h.

And the AUC(0-t) (male beagle dogs, single SC 12 mg/kg, 500 mg/mL solution X (5.00% ethanol, 1.91% poloxamer 188), n = 3, read-out: AUC0-3024 h)?
Its AUC(0-t) is 135 ± 86 µM·h.

And the AUC(0-t) (male beagle dogs, single SC 12 mg/kg, 500 mg/mL solution X (5.00% ethanol, 1.91% poloxamer 188), n = 3, read-out: AUC0-4032 h)?
The AUC(0-t) was 145 ± 90 µM·h.

What about the AUC(0-t) (male beagle dogs, single SC 12 mg/kg, 500 mg/mL solution X (5.00% ethanol, 1.91% poloxamer 188), n = 3, read-out: AUC0-4368 h) of the same molecule?
Its AUC(0-t) is 148 ± 91 µM·h.

What about the AUC(0-inf) [1] of the same molecule?
Its AUC(0-inf) is 219 ± 54 µM·h.

And the Cmax [1]?
Its Cmax is 353 ± 148 nM.

What about the Tmax [1] of the same molecule?
The Tmax was 13 ± 8.54 days.

What about the half-life [1] of the same molecule?
Its half-life is 14.7 days.

And the AUC(0-t) (n = 3 dogs, SC 12 mg/kg, solution T, 400 mg/mL, read-out: AUC0-24 h)?
Its AUC(0-t) is 2.64 ± 0.5 µM·h.

And the AUC(0-t) (n = 3 dogs, SC 12 mg/kg, solution T, 400 mg/mL, read-out: AUC0-168 h)?
Its AUC(0-t) is 36 ± 26.2 µM·h.

And the AUC(0-t) (n = 3 dogs, SC 12 mg/kg, solution T, 400 mg/mL, read-out: AUC0-336 h)?
Its AUC(0-t) is 76.1 ± 46.7 µM·h.

And the AUC(0-t) (n = 3 dogs, SC 12 mg/kg, solution T, 400 mg/mL, read-out: AUC0-672 h)?
The AUC(0-t) was 148 ± 51 µM·h.

And the AUC(0-t) (n = 3 dogs, SC 12 mg/kg, solution T, 400 mg/mL, read-out: AUC0-1334 h)?
The AUC(0-t) was 197 ± 48 µM·h.

And the AUC(0-t) (n = 3 dogs, SC 12 mg/kg, solution T, 400 mg/mL, read-out: AUC0-2016 h)?
Its AUC(0-t) is 213 ± 53 µM·h.

What about the AUC(0-t) (n = 3 dogs, SC 12 mg/kg, solution T, 400 mg/mL, read-out: AUC0-2352 h) of the same molecule?
The AUC(0-t) was 216 ± 54 µM·h.

And the AUC(0-inf) [2]?
Its AUC(0-inf) is 141 ± 14 µM·h.

And the Cmax [2]?
Its Cmax is 175 ± 29 nM.

And the Tmax [2]?
Its Tmax is 14.3 ± 11.5 days.

And the half-life [2]?
Its half-life is 18.3 days.

And the AUC(0-t) (n = 3 dogs, SC 12 mg/kg, solution U, 500 mg/mL, read-out: AUC0-24 h)?
Its AUC(0-t) is 1.8 ± 0.85 µM·h.

And the AUC(0-t) (n = 3 dogs, SC 12 mg/kg, solution U, 500 mg/mL, read-out: AUC0-168 h)?
The AUC(0-t) was 12.9 ± 5.1 µM·h.

And the AUC(0-t) (n = 3 dogs, SC 12 mg/kg, solution U, 500 mg/mL, read-out: AUC0-336 h)?
Its AUC(0-t) is 33.9 ± 14.2 µM·h.

What about the AUC(0-t) (n = 3 dogs, SC 12 mg/kg, solution U, 500 mg/mL, read-out: AUC0-672 h) of the same molecule?
The AUC(0-t) was 78.5 ± 11.4 µM·h.

What about the AUC(0-t) (n = 3 dogs, SC 12 mg/kg, solution U, 500 mg/mL, read-out: AUC0-1334 h) of the same molecule?
Its AUC(0-t) is 118 ± 6 µM·h.

What about the AUC(0-t) (n = 3 dogs, SC 12 mg/kg, solution U, 500 mg/mL, read-out: AUC0-2016 h) of the same molecule?
The AUC(0-t) was 133 ± 11 µM·h.

What about the AUC(0-t) (n = 3 dogs, SC 12 mg/kg, solution U, 500 mg/mL, read-out: AUC0-2352 h) of the same molecule?
The AUC(0-t) was 136 ± 12 µM·h.

What about the Cmax (n = 3 dogs, SC 12 mg/kg, solution W, 400 mg/mL) of the same molecule?
Its Cmax is 200 ± 90 nM.

What about the AUC(0-t) (n = 3 dogs, SC 12 mg/kg, solution W, 400 mg/mL, read-out: AUC0-24 h) of the same molecule?
The AUC(0-t) was 0.505 ± 0.194 µM·h.

And the AUC(0-t) (n = 3 dogs, SC 12 mg/kg, solution W, 400 mg/mL, read-out: AUC0-168 h)?
The AUC(0-t) was 6.82 ± 3.38 µM·h.

What about the AUC(0-t) (n = 3 dogs, SC 12 mg/kg, solution W, 400 mg/mL, read-out: AUC0-672 h) of the same molecule?
The AUC(0-t) was 65.1 ± 43.1 µM·h.

And the AUC(0-t) (n = 3 dogs, SC 12 mg/kg, solution W, 400 mg/mL, read-out: AUC0-1344 h)?
The AUC(0-t) was 123 ± 54 µM·h.

What about the AUC(0-t) (n = 3 dogs, SC 12 mg/kg, solution W, 400 mg/mL, read-out: AUC0-1680 h) of the same molecule?
The AUC(0-t) was 142 ± 50 µM·h.

And the AUC(0-t) (n = 3 dogs, SC 12 mg/kg, solution W, 400 mg/mL, read-out: AUC0-2016 h)?
The AUC(0-t) was 154 ± 47 µM·h.

And the AUC(0-t) (n = 3 dogs, SC 12 mg/kg, solution W, 400 mg/mL, read-out: AUC0-2253 h)?
Its AUC(0-t) is 164 ± 44 µM·h.

What about the AUC(0-t) (n = 3 dogs, SC 12 mg/kg, solution W, 400 mg/mL, read-out: AUC0-2688 h) of the same molecule?
Its AUC(0-t) is 170 ± 42 µM·h.

And the AUC(0-t) (n = 3 dogs, SC 12 mg/kg, solution W, 400 mg/mL, read-out: AUC0-3024 h)?
The AUC(0-t) was 174 ± 41 µM·h.

What about the AUC(0-t) (n = 3 dogs, SC 12 mg/kg, solution W, 400 mg/mL, read-out: AUC0-4032 h) of the same molecule?
The AUC(0-t) was 181 ± 39 µM·h.

What about the AUC(0-t) (n = 3 dogs, SC 12 mg/kg, solution W, 400 mg/mL, read-out: AUC0-4368 h) of the same molecule?
Its AUC(0-t) is 182 ± 38 µM·h.
